Data taken from paper PMC9244950 (ACS Omega, 2022).
In brackets after ≈: the same amount, converted by molar mass.

Key:
[1] = system: Mtb H37Rv strain; test: microbe, parasite or virus in culture; type: cell-based, Mycobacterium tuberculosis
[2] = In vitro cytotoxicity, THP-1 cell viability after 3 days; type: cell-based; settings: human, THP-1 cells
[3] = biological target: wild-type InhA (Mycobacterium tuberculosis, UniProt P9WGR1); test: InhA inhibition assay; type: biochemical
[4] = Mycobacterium tuberculosis, H37RV
[5] = Mycobacterium tuberculosis, H37RV, Mtb H37Rv, dual read-out (OD590 and fluorescence)
[6] = Mtb H37Rv, dual read-out (OD590 and fluorescence)

wild-type InhA, sequence (P9WGR1 whole entry, looked up): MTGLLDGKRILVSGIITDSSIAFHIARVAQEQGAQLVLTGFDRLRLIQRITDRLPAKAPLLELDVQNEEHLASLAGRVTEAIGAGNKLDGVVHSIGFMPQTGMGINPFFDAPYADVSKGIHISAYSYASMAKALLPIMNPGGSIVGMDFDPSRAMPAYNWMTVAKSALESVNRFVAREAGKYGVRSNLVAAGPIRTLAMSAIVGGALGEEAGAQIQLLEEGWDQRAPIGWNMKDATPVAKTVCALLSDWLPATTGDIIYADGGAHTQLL

Compound | MIC [1, 4] | IC50 [1, 5] | IC50 at 3 days [2] | IC50 [3] | IC50 [1, 6] | MIC [1, 6]
O=C1c2ccccc2C(=O)N1c1nnc(-c2cccc(Br)c2)s1 [Compound 21, 2-(5-(3-Bromophenyl)-1,3,4-thiadiazol-2-yl)isoindoline-1,3-dione] | > 200 µM | 100 µM | – | – | – | –
O=C1c2ccccc2C(=O)N1c1cccc([N+](=O)[O-])c1 [Compound 10, 2-(3-Nitrophenyl)isoindoline-1,3-dione] | > 200 µM | 121 µM | – | – | – | –
O=C1c2ccccc2C(=O)N1c1ccc(F)cc1 [Compound 2, 2-(4-Fluorophenyl)isoindoline-1,3-dione] | > 200 µM | 197 µM | – | – | – | –
O=C1c2ccccc2C(=O)N1c1cccc(Cl)c1 [Compound 7, 2-(3-Chlorophenyl)isoindoline-1,3-dione] | 96 µM (≈ 24.7 µg/mL) | 26 µM | > 150 µM | – | – | –
O=C1c2ccccc2C(=O)N1c1nnc(-c2ccc(I)cc2)s1 [Compound 27, 2-(5-(4-Iodophenyl)-1,3,4-thiadiazol-2-yl)isoindoline-1,3-dione] | 64 µM (≈ 27.7 µg/mL) | 18 µM | > 200 µM | 8.65 µM | – | –
2-(4-Methyl-2-oxo-2H-chromen-6-yl)isoindoline-1,3-dione [Compound 30] | – | – | – | – | > 200 µM | > 200 µM
O=C1c2ccccc2C(=O)N1c1nnc(-c2ccccc2)s1 [Compound 19, 2-((5-Phenyl)-1,3,4-thiadiazol-2-yl)isoindoline-1,3-dione] | > 200 µM | > 200 µM | – | – | – | –
Cc1cccc(-c2nnc(N3C(=O)c4ccccc4C3=O)s2)c1 [Compound 23, 2-(5-(m-Tolyl)-1,3,4-thiadiazol-2-yl)isoindoline-1,3-dione] | 123 µM (≈ 39.5 µg/mL) | 43 µM | – | – | – | –
O=C1c2ccccc2C(=O)N1c1nnc(Cc2ccccc2)s1 [Compound 24, 2-(5-Benzyl--1,3,4-thiadiazol-2-yl)isoindoline-1,3-dione] | > 200 µM | > 200 µM | – | – | – | –
O=C1c2ccccc2C(=O)N1c1nnc(-c2ccccc2[N+](=O)[O-])s1 [Compound 28, 2-(5-(2-Nitrophenyl)-1,3,4-thiadiazol-2-yl)isoindoline-1,3-dione] | > 200 µM | 171 µM | – | – | – | –
Cc1ccc(N2C(=O)c3ccccc3C2=O)nc1 [Compound 13, 2-(5-Methylpyridin-2-yl)isoindoline-1,3-dione] | > 200 µM | 160 µM | – | – | 148 µM | –
O=C1c2ccccc2C(=O)N1c1ccc(F)c(Cl)c1 [Compound 4, 2-(3-Chloro-4-fluorophenyl)isoindoline-1,3-dione] | 186 µM (≈ 51.3 µg/mL) | 64 µM | – | – | – | –
Cc1cccc(N2C(=O)c3ccccc3C2=O)c1 [Compound 5, 2-(m-Tolyl)isoindoline-1,3-dione] | 100 µM (≈ 23.7 µg/mL) | 29 µM | > 150 µM | – | – | –
Cc1ccnc(N2C(=O)c3ccccc3C2=O)c1 [Compound 12, 2-(4-Methylpyridin-2-yl)isoindoline-1,3-dione] | > 200 µM | 148 µM | – | – | 160 µM | –
O=C1c2ccccc2C(=O)N1c1ccc(Cl)cc1 [Compound 6, 2-(4-Chlorophenyl)isoindoline-1,3-dione] | 94 µM (≈ 24.2 µg/mL) | 28 µM | > 150 µM | – | – | –
O=C1c2ccccc2C(=O)N1c1ccc(Br)cc1 [Compound 8, 2-(4-Bromophenyl)isoindoline-1,3-dione] | 102 µM (≈ 30.8 µg/mL) | 31 µM | > 150 µM | – | – | –
Cc1ccccc1N1C(=O)c2ccccc2C1=O [Compound 3, 2-(o-Tolyl)isoindoline-1,3-dione] | 194 µM (≈ 46 µg/mL) | 68 µM | – | – | – | –
NNC(=O)c1ccncc1 [Isoniazid, reference compound] | 0.38 µM (≈ 0.0521 µg/mL) | 0.15 µM | – | – | – | –
Cc1nnc(N2C(=O)c3ccccc3C2=O)s1 [Compound 29, 2-(5-Methyl-1,3,4-thiadiazol-2-yl)isoindolin-1,3-dione] | > 200 µM | 100 µM | – | – | – | –
O=C1c2ccccc2C(=O)N1c1nnc(-c2ccccc2F)s1 [Compound 25, 2-(5-(2-Fluorophenyl)-1,3,4-thiadiazol-2-yl)isoindoline-1,3-dione] | > 200 µM | 133 µM | – | – | – | –
O=C1c2ccccc2C(=O)N1c1ccc(Br)cn1 [Compound 14, 2-(5-Bromopyridin-2-yl)isoindoline-1,3-dione] | > 200 µM | 90 µM | – | – | – | –
COc1ccccc1-c1nnc(N2C(=O)c3ccccc3C2=O)s1 [Compound 22, 2-(5-(2-Methoxyphenyl)-1,3,4-thiadiazol-2-yl)isoindoline-1,3-dione] | 180 µM (≈ 60.7 µg/mL) | 58 µM | – | – | – | –
O=C(O)CN1C(=O)c2ccccc2C1=O [Compound 11, 2-(1,3-Dioxoisoindolin-2-yl)acetic Acid] | 164 µM (≈ 33.6 µg/mL) | 55 µM | – | – | – | –
COc1ccc(-c2nnc(N3C(=O)c4ccccc4C3=O)s2)cc1 [Compound 16, 2-(5-(4-Methoxyphenyl)-1,3,4-thiadiazol-2-yl)isoindoline-1,3-dione] | 182 µM (≈ 61.4 µg/mL) | 62 µM | – | – | – | –
O=C1c2ccccc2C(=O)N1c1nnc(-c2cccc(Cl)c2)s1 [Compound 26, 2-(5-(3-Chlorophenyl)-1,3,4-thiadiazol-2-yl)isoindoline-1,3-dione] | 192 µM (≈ 65.6 µg/mL) | 80 µM | – | – | – | –
O=C(NN1C(=O)c2ccccc2C1=O)c1ccc(O)cc1 [Compound 20, N-(1,3-Dioxoisoindoline-2-yl)-4-hydroxybenzamide] | > 200 µM | 101 µM | – | – | – | –
